Source: article PMC7464788, “Modification and Targeted Design of N-Terminal Truncates Derived from Brevinin with Improved Therapeutic Efficacy” (Biology, 2020)
Converted amounts (≈) assume the structure as drawn. “And” between values parts separate entries of the source, which are not always exact repeats. Equal values may be shown once. Positions of bridges follow the written chain, without caps; N, C: chain ends. Residues, ends and D or L forms follow the SMILES beside them. No end group written: not given here.

Key:
[1] = test system: Pseudomonas aeruginosa (ATCC27853); format: cell-based
Protocol: (§1) The antimicrobial assay was carried out to detect the minimum inhibitory concentration (MIC) and the minimum bactericidal concentration (MBC) of each peptide on the microbes as described previously. Seven different microorganisms were used in the assay: Gram-positive bacteria Staphylococcus aureus (NCTC10788), Enterococcus faecalis (NCTC12697), and methicillin-resistant S. aureus (MRSA) (NCTC12493); Gram-negative bacteria Escherichia coli (NCTC10418), Pseudomonas aeruginosa (ATCC27853), and Klebsiella pneumoniae (ATCC 43816); and fungi Candida albicans (NCYC1467). Bacterial strains were inoculated and grown to mid-log phase in fresh Mueller Hinton broth (MHB) at 37 °C for overnight, then bacteria inoculum suspensions were subcultured until reaching the logarithmic growth phase by measuring OD of the cultures at wavelength 550 nm. Then, 99 µL bacteria and 1 µL peptide solution were mixed in the 96-wells microplate. For positive and negative controls, the bacteria were incubated with antibiotics (Norfloxacin for Gram-positive bacteria and Gram-negative bacteria; Amphotericin B for fungi) solution and MHB medium, respectively. Experiments were repeated five times in five replicates.

[2] = test system: Staphylococcus aureus (NCTC10788); format: cell-based
Protocol: as §1

[3] = test system: Candida albicans (NCYC1467); format: cell-based
Protocol: as §1

[4] = test system: Klebsiella pneumoniae (ATCC 43816); format: cell-based
Protocol: as §1

[5] = test system: Escherichia coli (NCTC10418); format: cell-based
Protocol: as §1

[6] = test system: Enterococcus faecalis (NCTC12697); format: cell-based
Protocol: as §1

[7] = test system: horse erythrocytes; assay: Haemolytic assay; format: cell-based; conditions: 2% (v/v) horse red blood cells, 37 °C, 2 h; 1% Triton-X 100 positive control; three times in five replicates
Protocol: The haemolytic assay was carried out to detect the cytotoxicity of each peptide to erythrocytes obtained from fresh defibrinated horse blood as described before. An appropriate volume of horse blood solution was collected via washing and transferring until the supernatant was clear. Then, 2% (v/v) suspension of red blood cells were incubated with peptide at 37 °C for 2 h. For positive and negative controls, the red blood cells were incubated with 1% (v/v) Triton-X 100 and Phosphate-buffered saline (PBS) solution, respectively. The 10% of maximal haemolysis concentration (HC10, μM) was utilised to assess the haemolytic potential. Experiments were repeated three times in five replicates.

[8] = test system: methicillin-resistant S. aureus (MRSA) (NCTC12493); format: cell-based, Staphylococcus aureus
Protocol: as §1

[9] = test system: Staphylococcus aureus (NCTC10788); conditions: cited from earlier work
Excerpt: (§2) Although B1PLC had better activity against bacteria, its potency was slightly lower than that of B1PLB against fungi. As we know, the more positive charge of B1PLC (Table 1) could contribute to an enhanced electrostatic interaction with the negatively charged bacterial cell envelope. Therefore, to try to combine the properties of the two peptides, we designed B1A by substitution of the Asn residue at po ...

[10] = test system: Candida albicans (NCYC1467); conditions: cited from earlier work
Excerpt: as §2

[11] = test system: Escherichia coli (NCTC10418); conditions: cited from earlier work
Excerpt: as §2

Compound | MBC P. aeruginosa [1] | MIC P. aeruginosa [1] | MBC S. aureus [2] | MBC C. albicans [3] | MIC C. albicans [3] | MBC K. pneumoniae [4] | MIC K. pneumoniae [4] | MBC E. coli [5] | MIC E. coli [5] | MBC E. faecalis [6] | MIC E. faecalis [6] | HC10 (concentration causing 10% red cell lysis) [7] | MBC MRSA [8] | MIC MRSA [8] | Antimicrobial activity against S. aureus [9] | Antimicrobial activity against C. albicans [10] | Antimicrobial activity against E. coli [11]
CC[C@H](C)[C@@H]1NC(=O)[C@H](C)NC(=O)[C@@H](NC(=O)[C@H](Cc2ccccc2)NC(=O)[C@@H](NC(=O)[C@H](CCCCN)NC(=O)[C@@H]2CCCN2C(=O)[C@H](CC(C)C)NC(=O)[C@@H](N)Cc2ccccc2)[C@@H](C)CC)CSSC[C@@H](C(=O)O)NC(=O)[C@H](CCCCN)NC(=O)[C@H](CCCCN)NC(=O)[C@H]([C@@H](C)O)NC1=O [Peptide B1A2] (H-FLPKIFCAITKKC-OH; disulfide 7-13) | > 512 µM | > 512 µM | 256 µM (≈ 387 µg/mL) | 512 µM (≈ 773 µg/mL) | 512 µM (≈ 773 µg/mL) | > 512 µM | > 512 µM | 256 µM (≈ 387 µg/mL) | 256 µM (≈ 387 µg/mL) | > 512 µM | > 512 µM | could not be calculated and >512 µM | > 512 µM | 256 µM (≈ 387 µg/mL) |  |  | 
CC[C@H](C)[C@@H]1NC(=O)[C@H](C)NC(=O)[C@@H](NC(=O)[C@H](Cc2ccccc2)NC(=O)[C@@H](NC(=O)[C@H](CCCCN)NC(=O)[C@@H]2CCCN2C(=O)[C@H](CC(C)C)NC(=O)[C@H](Cc2ccccc2)NC(=O)[C@H](CCCCN)NC(=O)[C@H](C)NC(=O)[C@H](C)NC(=O)[C@H](CC(C)C)NC(=O)CNC(=O)[C@H](C)NC(=O)[C@@H](NC(=O)[C@H](CC(C)C)NC(=O)[C@@H]2CCCN2C(=O)[C@H](CC(C)C)NC(=O)[C@@H](N)Cc2ccccc2)[C@@H](C)CC)[C@@H](C)CC)CSSC[C@@H](C(=O)O)NC(=O)[C@H](CCCCN)NC(=O)[C@H](CCCCN)NC(=O)[C@H]([C@@H](C)O)NC1=O [Peptide B1A] (H-FLPLIAGLAAKFLPKIFCAITKKC-OH; disulfide 18-24) | 64 µM (≈ 167 µg/mL) | 32 µM (≈ 83.4 µg/mL) | 8 µM (≈ 20.8 µg/mL) | 8 µM (≈ 20.8 µg/mL) | 4 µM (≈ 10.4 µg/mL) | 16 µM (≈ 41.7 µg/mL) | 16 µM (≈ 41.7 µg/mL) | 32 µM (≈ 83.4 µg/mL) | 8 µM (≈ 20.8 µg/mL) | 32 µM (≈ 83.4 µg/mL) | 8 µM (≈ 20.8 µg/mL) | 1.576 µM | 32 µM (≈ 83.4 µg/mL) | 16 µM (≈ 41.7 µg/mL) |  |  | 
FLPLIAGLAANFLPKIFCAITKKC (disulfide 18-24 (inferred)) [Peptide B1PLB, Brevinin-1PLb, brevinin-1 peptide from the skin secretions of Lithobates palustris (Rana palustris)] |  |  |  |  |  |  |  |  |  |  |  |  |  |  | potent antimicrobial activity | potent antimicrobial activity | potent antimicrobial activity
FLPVIAGVAAKFLPKIFCAITKKC (disulfide 18-24 (inferred)) [Peptide B1PLC, brevinin-1PLc, brevinin-1 peptide from the skin secretions of Lithobates palustris (Rana palustris)] |  |  |  |  |  |  |  |  |  |  |  |  |  |  | potent antimicrobial activity | potent antimicrobial activity | potent antimicrobial activity
